In patent US20080255206A1, “Rxr Agonists and Antagonists, Alone or in Combination with Ppar Ligands, in the Treatment of Metabolic and Cardiovascular Diseases” (priority 2005, published 2008):
Like-named read-outs stand apart in the source and are kept apart here.

Tests used:
skin of mice = assay: Topical administration to the skin of mice (irritation); assay type: in vivo; settings: concentrations up to 2.5%
[1] = Pharmacokinetics, daily oral gavage for 14 days in mice; settings: mouse, in vivo; for AUC / Cmax: oral
Protocol: Daily administration of compound 15 by oral gavage for 14 days in mice: Compound 15 is administered daily by oral gavage as a microsuspension in oil in doses of 30 to 400 mg/kg/day for 14 days in mice.

[2] = test system: skin inflammation induced by topical 9-cis RA; assay: Preventive and therapeutic effect on 9-cis RA-induced skin inflammation, human volunteer study; assay type: in vivo
Protocol: In this pilot clinical trial on one healthy volunteer, the substance 9-cis RA and compound 15 are administered epicutaneously. The inflammation-inducing agent 9-cis RA is used in a concentration of 0.3%. The RXR antagonist compound 15 is applied in a concentration of 1%. The compounds are solved in ethanol/propylene glycol (1:1) and administered twice daily. The site of application is the abdominal skin, with various areas of 3×3=9 cm^2. Volume per application is 0.1 ml.
The following three clinical settings at different sites are chosen: • 1. Induction of skin inflammation by 9-cis RA 9-cis RA is administered as a 0.3% solution twice daily from day 1 to day 14. The vehicle is administered from day 15 to disappearance of skin inflammation. • 2. Prevention of 9-cis RA-induced skin inflammation by RXR antagonist Compound 15 9-cis RA solution of 0.3% is administered twice daily from day 1 to day 14, each time followed subsequently by application of compound 15 as a 1% solution. • 3. Therapy of 9-cis RA-induced skin inflammation by RXR antagonist compound 15 9-cis RA solution of 0.3% is administered twice daily from day 1 to day 14. Compound 15 as a 1% solution is administered from day 15 until disappearance of skin inflammation.
The signs and symptoms of skin inflammation are recorded on a 0-4 scale, as described in example 21. The evaluation of the anti-inflammatory effect is based on the daily determination of the inflammation score (scale 0-4).
The following parameters serve as criteria for evaluation of the effect of 9-cis RA, the preventive effect of compound 15 and the therapeutic effect of compound 15. • 1. Sum of the daily inflammation scores from day 1 to day 28. Total inflammation score. • 2. Sum of the daily inflammation scores from day 15 to disappearance of skin inflammation. • 3. Time in days from day 15 to disappearance of skin inflammation.

[3] = Pharmacokinetics, single dose administration; assay type: in vivo; settings: plasma; for concentration at 1 h: po, microsuspension in oil, read-out: Plasma level one hour after oral administration
Protocol: Single dose administration: Compound 15 is administered orally as a microsuspension in oil. When measured one hour after oral administration, plasma levels are 480 ng/ml with 20 mg/kg and 2755 ng/ml with 100 mg/kg. There is a dose proportional increase in plasma levels of compound 15 within this dose range.

[4] = test system: human skin inflammation induced by topical 9-cis RA; assay: Therapeutic effect on 9-cis RA-induced human skin inflammation, clinical pilot trial; assay type: in vivo
Protocol: In the following pilot clinical trial on one healthy volunteer the compounds are applied epicutaneously. 9-cis RA being known for its skin inflammation potential is used in concentrations of 0.1%, 0.3% and 1%. Compound 15 (RXR antagonist) concentration is 1%. The compounds are solved in ethanol/propylene glycol (1:1). 9-cis RA is applied twice daily, 7 days a week, for two consecutive weeks. The site of application is an area of 3×3=9 cm^2 on the abdominal skin. The volume is 0.1 ml per administration. The treatment with compound 15, administered twice daily in a concentration of 1%, is started on day 15 when treatment with 9-cis RA is discontinued. This treatment lasts from day 15 to day 22. For a correct evaluation comparative areas with inflammation induced by 9-cis RA are treated with the vehicle, ethanol/propylene glycol, from day 15 to 22. The post-treatment period lasts until day 28.
The signs and symptoms of skin inflammation are recorded on a 0-4 scale, as described in example 21.
For evaluation of the anti-inflammatory effect of compound 15, the sum of the daily inflammation scores from day 15 to day 28 is determined, as well as the time to complete disappearance of skin inflammation from day 15 on.

synovial fibroblasts = assay: In vitro cartilage degradation by synovial fibroblasts (sGAG release); assay type: cell-based, human; settings: for sGAG release: 14 days
Protocol: Furthermore, it is determined whether this is accompanied by a modulation in the accumulation of the mRNA encoding catabolic enzyme matrix metalloproteinase-1 (MMP-1), responsible for degradation of human cartilage and consequently joint destruction in man. Adherent synovial fluid cells taken from a patient with RA are used after 5 passages in an in vitro assay for cartilage destruction. The cells incubated in flasks coated with 0.1% (0.1 g/100 ml) human cartilage powder are fixed using Matrigel® (BD Biosciences, Becton, Dickinson & Co., Boston, Mass., USA). The release of sulphated glycosaminoglycan (sGAG) into the culture medium is monitored by a commercial colorimetric test according to a method described by S. Björnsson, see Anal. […] This is conducted in the presence or absence of IL-1β (100 pg/ml).

skin of rats = assay: Topical administration to the skin of rats (irritation); assay type: in vivo; settings: concentrations up to 2.5%
NMRI mice = assay: 2 weeks toxicology study in NMRI mice; assay type: in vivo
Protocol: Oral administration of the RXR agonist compound 1 is tested by daily oral gavage in a 2 weeks toxicology study in NMRI mice. […] This signifies a favourable effect on the lipid profile, which is important in therapy of diabetes and lipid disorders.

[5] = Prevention: 9-cis RA 0.3% and compound 15 1%, both day 1 to day 14
[6] = Therapy: 9-cis RA 0.3% day 1 to day 14, compound 15 1% day 15 to disappearance of inflammation
[7] = 9-cis RA 0.1% day 1-14, followed by compound 15 1% day 15-22
[8] = 9-cis RA 0.3% day 1-14, followed by compound 15 1% day 15-22
[9] = 9-cis RA 1% day 1-14, followed by compound 15 1% day 15-22
[10] = absence of IL-1β, 10^−8 M, day 7
[11] = absence of IL-1β, 10^−8 M, day 14
[12] = absence of IL-1β, 10^−8 M, day 21
[13] = absence of IL-1β, 10^−8 M, day 28
[14] = absence of IL-1β, 10^−8 M, day 35
[15] = presence of 100 pg/ml IL-1β, 10^−7 M
[16] = presence of 100 pg/ml IL-1β, 10^−8 M
[17] = presence of 100 pg/ml IL-1β, 10^−8 M, day 7
[18] = presence of 100 pg/ml IL-1β, 10^−8 M, day 14
[19] = presence of 100 pg/ml IL-1β, 10^−8 M, day 21
[20] = presence of 100 pg/ml IL-1β, 10^−8 M, day 28
[21] = presence of 100 pg/ml IL-1β, 10^−8 M, day 35
[22] = presence of 100 pg/ml IL-1β, 10^−9 M
[23] = 9-cis RA 0.3% day 1 to day 14, then vehicle
[24] = 9-cis RA 0.1% day 1-14, followed by vehicle day 15-22
[25] = 9-cis RA 0.3% day 1-14, followed by vehicle day 15-22
[26] = 9-cis RA 1% day 1-14, followed by vehicle day 15-22

Compound: CCCCOc1c(\C(C)=C/C=C/C(C)=C/C(=O)O)cc(C(C)(C)C)cc1C(C)(C)C [Compound 15, (2E,4E,6Z)-7-[2-butoxy-3,5-bis(1,1-dimethylethyl)phenyl]-3-methyl-2,4,6-octatrienoic acid]
- Irritation or inflammation of the skin (skin of mice): does not lead to irritation or inflammation of the skin
- AUC ([1]; 30 mg/kg): 13200 ng·h/mL
- Cmax ([1]; 30 mg/kg): 4440 ng/mL
- AUC ([1]; 100 mg/kg): 25700 ng·h/mL
- Cmax ([1]; 100 mg/kg): 8920 ng/mL
- Tmax ([1]; oral gavage 30 to 400 mg/kg/day, 14 days): 0.5 to 2 h
- Sum of daily inflammation scores from day 15 to disappearance of inflammation [2, 5]: 5
- Sum of daily inflammation scores, day 1 to day 28. Total inflammation score [2, 5]: 11
- Time in days from day 15 to disappearance of inflammation [2, 5]: 6 days
- Sum of daily inflammation scores from day 15 to disappearance of inflammation [2, 6]: 5
- Sum of daily inflammation scores, day 1 to day 28. Total inflammation score [2, 6]: 9
- Time in days from day 15 to disappearance of inflammation [2, 6]: 6 days
- concentration at 1 h ([3]; single dose 20 mg/kg): 480 ng/mL
- concentration at 1 h ([3]; single dose 100 mg/kg): 2760 ng/mL
- bioavailability ([3]; at the mentioned low doses, intravenous versus oral PK data): 40%
- Sum of daily inflammation scores from day 15 to disappearance of inflammation [4, 7]: 2.5
- Time in days from day 15 to disappearance of inflammation [4, 7]: 3 days
- Sum of daily inflammation scores from day 15 to disappearance of inflammation [4, 8]: 5.5
- Time in days from day 15 to disappearance of inflammation [4, 8]: 6 days
- Sum of daily inflammation scores from day 15 to disappearance of inflammation [4, 9]: 11
- Time in days from day 15 to disappearance of inflammation [4, 9]: 8 days
- Effect on cartilage destruction in vitro (in words) (synovial fibroblasts; absence of IL-1β): no effect on the basal activity of synovial fibroblast
- sGAG release (synovial fibroblasts; absence of IL-1β, 10^−7 M): 39 µg/mL
- sGAG release (synovial fibroblasts; absence of IL-1β, 10^−8 M): 57 µg/mL
- Cumulative sGAG (synovial fibroblasts; [10]): 44 µg/mL
- Cumulative sGAG (synovial fibroblasts; [11]): 57 µg/mL
- Cumulative sGAG (synovial fibroblasts; [12]): 57 µg/mL
- Cumulative sGAG (synovial fibroblasts; [13]): 39 µg/mL
- Cumulative sGAG (synovial fibroblasts; [14]): 34 µg/mL
- sGAG release (synovial fibroblasts; absence of IL-1β, 10^−9 M): 46 µg/mL
- sGAG release (synovial fibroblasts; [15]): 41 µg/mL
- sGAG release (synovial fibroblasts; [16]): 89 µg/mL
- Cumulative sGAG (synovial fibroblasts; [17]): 67 µg/mL
- Cumulative sGAG (synovial fibroblasts; [18]): 89 µg/mL
- Cumulative sGAG (synovial fibroblasts; [19]): 89 µg/mL
- Cumulative sGAG (synovial fibroblasts; [20]): 173 µg/mL
- Cumulative sGAG (synovial fibroblasts; [21]): 56 µg/mL
- sGAG release (synovial fibroblasts; [22]): 144 µg/mL
- Effect on cartilage destruction in vitro (in words) (synovial fibroblasts; presence of IL-1β): markedly inhibits the IL-1β dependent cartilage destruction
- Irritation or inflammation of the skin (skin of rats): does not lead to irritation or inflammation of the skin

Compound: CC1=C(/C=C/C2=C(/C=C/C(C)=C/C(=O)O)CCCCC2)C(C)(C)CCC1 [Compound 1, (2E,4E)-3-methyl-5-[2-[(E)-2-(2,6,6-trimethyl-1-cyclohexen-1-yl)ethenyl]-1-cyclohepten-1-yl]-2,4-pentadienoic acid]
- Irritation or inflammation of the skin (skin of mice): does not lead to irritation or inflammation of the skin
- Lipid profile (triglycerides, HDL-, LDL-cholesterol) (NMRI mice; all treated groups): tendency to a decrease in triglycerides, an increase in HDL-cholesterol and a decrease in LDL-cholesterol
- Signs or symptoms of the hypervitaminosis A syndrome (NMRI mice; all treated groups): no signs or symptoms of the hypervitaminosis A syndrome
- Tolerability, oral (NMRI mice; daily oral gavage, 2 weeks, up to 400 mg/kg/day): very well tolerated
- Tolerability, intraperitoneal (NMRI mice; intraperitoneally, 200 mg/kg/day): well tolerated
- Body weight, intraperitoneal (NMRI mice; intraperitoneally, 400 mg/kg/day): retarded body weight increase
- Irritation or inflammation of the skin (skin of rats): does not lead to irritation or inflammation of the skin

Compound: CC1=C(/C=C/C(C)=C\C=C\C(C)=C\C(=O)O)C(C)(C)CCC1 [9-cis RA, 9-cis retinoic acid, reference compound]
- Sum of daily inflammation scores from day 15 to disappearance of inflammation [2, 23]: 14
- Sum of daily inflammation scores, day 1 to day 28. Total inflammation score [2, 23]: 18
- Time in days from day 15 to disappearance of inflammation [2, 23]: 13 days
- Sum of daily inflammation scores from day 15 to disappearance of inflammation [4, 24]: 6.5
- Time in days from day 15 to disappearance of inflammation [4, 24]: 8 days
- Sum of daily inflammation scores from day 15 to disappearance of inflammation [4, 25]: 14
- Time in days from day 15 to disappearance of inflammation [4, 25]: 13 days
- Sum of daily inflammation scores from day 15 to disappearance of inflammation [4, 26]: 14.5
- Time in days from day 15 to disappearance of inflammation [4, 26]: 9 days
- Effect on cartilage destruction in vitro (in words) (synovial fibroblasts; absence of IL-1β): increases cartilage destruction in vitro in a dose-dependent manner
- sGAG release (synovial fibroblasts; absence of IL-1β, 10^−7 M): 189 µg/mL
- sGAG release (synovial fibroblasts; absence of IL-1β, 10^−8 M): 107 µg/mL
- Cumulative sGAG (synovial fibroblasts; [10]): 44 µg/mL
- Cumulative sGAG (synovial fibroblasts; [11]): 107 µg/mL
- Cumulative sGAG (synovial fibroblasts; [12]): 206 µg/mL
- Cumulative sGAG (synovial fibroblasts; [13]): 253 µg/mL
- Cumulative sGAG (synovial fibroblasts; [14]): 292 µg/mL
- sGAG release (synovial fibroblasts; absence of IL-1β, 10^−9 M): 64 µg/mL
- sGAG release (synovial fibroblasts; [15]): 221 µg/mL
- sGAG release (synovial fibroblasts; [16]): 189 µg/mL
- Cumulative sGAG (synovial fibroblasts; [17]): 68 µg/mL
- Cumulative sGAG (synovial fibroblasts; [18]): 189 µg/mL
- Cumulative sGAG (synovial fibroblasts; [19]): 330 µg/mL
- Cumulative sGAG (synovial fibroblasts; [20]): 407 µg/mL
- Cumulative sGAG (synovial fibroblasts; [21]): 441 µg/mL
- sGAG release (synovial fibroblasts; [22]): 204 µg/mL
